Data set [1] is described as follows: Stability of six compounds in rat plasma (QC samples). The data set is classed as in vitro ADME. Particulars: n = 6. The procedure:
The stabilities of the six compounds in rat plasma were evaluated by analyzing QC samples under different conditions. […] Long-term stability was tested by storing QC samples at -80°C for one month. RSD was evaluated by analyzing six replicate samples. The stability of the six compounds was evaluated under various conditions.

Data set [2] can be described thus: Pharmacokinetic study in rats after oral administration of raw/honey-roasting licorice water decoction (UPLC-MS/MS of plasma). The data set is classed as in vivo, Wistar rats. To be noted: for AUC(0-t) / Cmax / Tmax / AUC0-24h: 2.7 g (crude drug)/kg, rat plasma, n = 5; for AUC(0-t): read-out: AUC0-24h. The method, then:
Healthy male Wistar rats (weighing 200 ± 20 g) were obtained from the Laboratory Animal Centre of Shanghai Jiao Tong University (Shanghai, China). […] All protocols and procedures were approved by the Shanghai Jiao Tong University Animal Care and Use Committee.
Chromatographic separation was performed on a ZORBAX Eclipse Plus C18 column (50 mm × 2.1 mm, 1.8 µm). […] The flow rate was set at 0.4 mL/min. The column temperature and injection volume were set at 40°C and 2.0 µL, respectively. An MS system operating in negative electrospray ionization mode was employed in this study. […] The DP for each compound and IS were -120, -100, -100, -100, -100, -80, and -100 V, respectively. The collision energy for each compound and IS were -58, -32, -42, -32, -32, -65, and -20 V, respectively. The ion spray needle voltage was set at -4500 V, and the source temperature was 500°C. Following optimization of the setting parameters, the ESI source was operated with the GS1, GS2, and CUR (Nitrogen) set at 35, 35, and 40 psi, respectively.
Fifty microliters of the plasma samples (or standard plasma samples and QC samples) were spiked with 5 µL of IS solution (10.00 µg/mL) and 200 µL of acetonitrile. The mixture was vortexed for 30 s and centrifuged at 14,000 rpm for 15 min at 4°C. The supernatant was collected and evaporated in a 37°C water bath under a nitrogen stream. The residue was redissolved with 500 µL of 70% acetonitrile.
After being housed in a controlled environment for a week, rats were randomly divided into three groups (n = 5 for each group) and were then orally administered a raw, 25% honey-roasting, or 50% honey-roasting licorice water decoction at a dosage of 2.7 g (crude drug)/kg. Blood samples of 0.15 mL were taken from the suborbital vein into heparinized tubes at 0.17, 0.5, 1, 1.5, 2, 2.5, 3, 4, 6, 8, 12, and 24 h after oral administration of the licorice water decoction. The blood samples were immediately centrifuged at 10,000 rpm for 15 min. The separated plasma samples were frozen at -80°C before analysis.
The pharmacokinetic parameters of the six compounds were calculated by […] 4.4.1 (Thermo Electron Corporation, Philadelphia, PA, USA) software. […] Data were presented as the mean ± SD. Statistical analyses of all the data obtained were evaluated using one-way ANOVA (SPSS 17.0).

On the set-up of data set [3]: method as in PMID 8197226, PMID 1432618. Particulars: cited from earlier work.
Setting [4] is: At 4°C for 24 h, postpreparative QC sample in autosampler, high concentration level.
Setting [5] is: At 4°C for 24 h, postpreparative QC sample in autosampler, low concentration level.
Where [6] appears, read: At 4°C for 24 h, postpreparative QC sample in autosampler, medium concentration level.
Where [7] appears, read: At -80°C for 1 month, rat plasma QC sample, high concentration level.
[8] abbreviates: At -80°C for 1 month, rat plasma QC sample, low concentration level.
Setting [9] is: At -80°C for 1 month, rat plasma QC sample, medium concentration level.
The mark [10] stands for this setting: 25% honey-roasting group vs raw group, rat, oral.
Where [11] appears, read: male, Wistar, rat, plasma, po, oral 25% honey-roasting licorice water decoction.
Setting [12] is: male, Wistar, rat, plasma, po, oral 25% honey-roasting licorice water decoction, read-out: Cmax.
The mark [13] stands for this setting: male, Wistar, rat, plasma, po, oral 25% honey-roasting licorice water decoction, read-out: Tmax.
The mark [14] stands for this setting: male, Wistar, rat, plasma, po, oral 50% honey-roasting licorice water decoction.
[15] abbreviates: male, Wistar, rat, plasma, po, oral 50% honey-roasting licorice water decoction, read-out: Cmax.
The mark [16] stands for this setting: male, Wistar, rat, plasma, po, oral 50% honey-roasting licorice water decoction, read-out: Tmax.
Setting [17] is: male, Wistar, rat, plasma, po, oral raw licorice water decoction.
The mark [18] stands for this setting: male, Wistar, rat, plasma, po, oral raw licorice water decoction, read-out: Cmax.
Setting [19] is: male, Wistar, rat, in vivo, po, oral 50% honey-roasting licorice water decoction.
Where [20] appears, read: oral raw licorice water decoction.
[21] abbreviates: oral 25% honey-roasting licorice water decoction.
Where [22] appears, read: oral 50% honey-roasting licorice water decoction.

Like-named read-outs stand apart in the source and are kept apart here.

Regarding `O=C(/C=C/c1ccc(O)cc1)c1ccc(O)cc1O` [ILG, isoliquiritigenin], the “Stability, Average” value is recorded as 93.1% in data set [1] (setting [4]); 95.7% in data set [1] (setting [5]); 96.4% in data set [1] (setting [6]); 87.6% in data set [1] (setting [7]); 94.7% in data set [1] (setting [8]); 85.3% in data set [1] (setting [9]). Moreover, in data set [2] (setting [10]), the “Cmax higher than in the raw group” value is 49.3%. Also, the “AUC0-24h increased over the raw licorice group” value in data set [2] (honey-roasting licorice vs raw licorice group, rat, oral) was determined as 42.7%. Also, the results for the AUC(0-t) in data set [2] (setting [11]), in data set [2] (setting [14]) and in data set [2] (setting [17]) were 9.32 ± 0.68 ng·h/mL, 6.13 ± 0.8 ng·h/mL and 6.53 ± 2.34 ng·h/mL, respectively. For the same compound, the Cmax amounted to 1.12 ± 0.25 ng/mL in data set [2] (setting [12]), 0.56 ± 0.12 ng/mL in data set [2] (setting [15]) and 0.75 ± 0.28 ng/mL in data set [2] (setting [18]). Further, the Tmax in data set [2] (setting [13]) was found to be 1.5 h; in data set [2] (setting [16]) it was 1.8 h; in data set [2] (male, Wistar, rat, plasma, po, oral raw licorice water decoction, read-out: Tmax), 1.5 h.

Take `O=C(/C=C/c1ccc(O[C@@H]2O[C@H](CO)[C@@H](O)[C@H](O)[C@H]2O)cc1)c1ccc(O)cc1O` [ILQ, isoliquiritin]: the “Stability, Average” value turned out to be 95.7% in data set [1] (setting [4]); 90.2% in data set [1] (setting [5]); 89.3% in data set [1] (setting [6]); 100.1% in data set [1] (setting [7]); 89.4% in data set [1] (setting [8]); 94.2% in data set [1] (setting [9]). Also, the “Cmax lower than in the raw group” value in data set [2] (setting [10]) is recorded as 48.07%. For the same compound, in data set [2] (setting [10]), the “Tmax longer than in the raw group” value stood at 1.75 times. For the same compound, the Tmax in data set [2] (male, Wistar, in vivo, oral 25% honey-roasting licorice water decoction, read-out: Tmax) is 0.7 h. Also, the AUC(0-t) in data set [2] (male, Wistar, rat, in vivo, po, oral 25% honey-roasting licorice water decoction) amounted to 260 ± 8.53 ng·h/mL; in data set [2] (setting [19]) it was 246 ± 7.67 ng·h/mL; in data set [2] (male, Wistar, rat, in vivo, po, oral raw licorice water decoction), 257 ± 19.3 ng·h/mL. Also, the Cmax was determined as 24.8 ± 3.63 ng/mL in data set [2] (male, Wistar, rat, in vivo, po, oral 25% honey-roasting licorice water decoction, read-out: Cmax); 20.6 ± 5.82 ng/mL in data set [2] (male, Wistar, rat, in vivo, po, oral 50% honey-roasting licorice water decoction, read-out: Cmax); 47.8 ± 2.62 ng/mL in data set [2] (male, Wistar, rat, in vivo, po, oral raw licorice water decoction, read-out: Cmax).

For the compound `O=C1C[C@@H](c2ccc(O[C@@H]3O[C@H](CO)[C@@H](O)[C@H](O)[C@H]3O)cc2)Oc2cc(O)ccc21` [LQ, liquiritin], the “Stability, Average” value in data set [1] (setting [4]) was 99.5%; in data set [1] (setting [5]), 90.9%; in data set [1] (setting [6]), 88.3%; in data set [1] (setting [7]), 89.5%; in data set [1] (setting [8]), 96.4%; in data set [1] (setting [9]), 95.6%. In addition, in data set [2] (50% honey-roasting group vs raw licorice group, rat, oral), the “Cmax lower than in the raw licorice group” value is 53.96%. The AUC(0-t) in data set [2] (setting [19]) stood at 319 ± 50 ng·h/mL; in data set [2] (setting [11]), 479 ± 65.2 ng·h/mL; in data set [2] (setting [17]), 520 ± 94.5 ng·h/mL. Besides, the Cmax is 203 ± 54.1 ng/mL in data set [2] (setting [12]), 87.9 ± 8.08 ng/mL in data set [2] (setting [15]) and 191.00 ± 80.23 ng/mL in data set [2] (setting [20]).

For the compound `CC1(C)[C@@H](O)CC[C@]2(C)[C@H]3C(=O)C=C4[C@@H]5C[C@@](C)(C(=O)O)CC[C@]5(C)CC[C@@]4(C)[C@]3(C)CC[C@@H]12` [GA, glycyrrhetinic acid], the “Stability, Average” value in data set [1] (setting [4]) was found to be 100.9%; in data set [1] (setting [5]), 96.4%; in data set [1] (setting [6]) it was 96.2%; in data set [1] (setting [8]), 96.2%; in data set [1] (setting [9]) it was 102.1%. Also, the AUC(0-t) was 7000 ± 1290 ng·h/mL in data set [2] (setting [11]), 5180 ± 2540 ng·h/mL in data set [2] (setting [14]) and 6980 ± 4800 ng·h/mL in data set [2] (setting [17]). Also, the maximum concentration (Cmax) in data set [2] (setting [12]) amounted to 651 ± 200 ng/mL; in data set [2] (setting [15]) it was 608 ± 278 ng/mL; in data set [2] (setting [18]) it was 572 ± 311 ng/mL. Also, the Tmax was found to be 6.8 h in data set [2] (setting [13]), 6.8 h in data set [2] (setting [16]) and 8.0 h in data set [2] (setting [20]).

In the case of `O=C1C[C@@H](c2ccc(O)cc2)Oc2cc(O)ccc21` [LG, liquiritigenin], the “Stability, Average” value in data set [1] (setting [4]) came out at 93.9%; in data set [1] (setting [5]), 90.8%; in data set [1] (setting [6]), 87.7%; in data set [1] (setting [7]) it was 96.5%; in data set [1] (setting [8]) it was 92.8%. In addition, the AUC0-24h in data set [2] (setting [21]) was 85.36 ± 14.70 ng·h/mL; in data set [2] (setting [22]) it was 47.74 ± 8.03^∗Δ h·ng /mL; in data set [2] (setting [20]), 84.29 ± 33.71 ng·h/mL. Further, the results for the Tmax in data set [2] (setting [21]), in data set [2] (setting [22]) and in data set [2] (setting [20]) were 2.3 h, 2.5 h and 2.4 h, respectively.

For `CC1(C)[C@@H](O[C@H]2O[C@H](C(=O)O)[C@@H](O)[C@H](O)[C@H]2O[C@@H]2O[C@H](C(=O)O)[C@@H](O)[C@H](O)[C@H]2O)CC[C@]2(C)[C@H]3C(=O)C=C4[C@@H]5C[C@@](C)(C(=O)O)CC[C@]5(C)CC[C@@]4(C)[C@]3(C)CC[C@@H]12` [Glycyrrhizin, glycyrrhizin], in data set [3], the oral bioavailability entry is “extremely low”.

The values above are taken from article PMC6033295, “The Effects of the Honey-Roasting Process on the Pharmacokinetics of the Six Active Compounds of Licorice” (Evidence-based Complementary and Alternative Medicine : eCAM, 2018).
